Data as given in patent US6087509A, “1-Imidazolidinyl-phenyls” (Hoechst Marion Roussel, priority 1995, dated 2000).

Tests used:
[1] = tested on: prostate in an intact male rat; experiment: Reducing effect of the weight of the prostate in an intact male rat (systemic antiandrogen activity); type: in vivo; details: day 0 to 4 and day 7 to 10, intact male Sprague Dawley rats, compared to solvent only
Protocol: 3) Determination of the Reducing Effect of the Weight of the Prostate in an Intact Male Rat
The systemic activity of an antiandrogen is determined by the reduction in the weight of the prostate which it brings about in an intact animal.
The animals used are male rats of the Sprague Dawley strain weighing about 200 g, 7 weeks old, originating from the Iffa Credo breed (France). The experiment is carried out over two weeks, except for the weekend.
The product can be administered by oral, sub-cutaneous or percutaneous route.
The solvents used are then: by oral route: 0.5% aqueous solution of methylcellulose under a volume of 5 ml/kg, by sub-cutaneous route: wheatgerm oil in 10% ethanol under a volume of 0.2 ml/kg, and by percutaneous route: ethanol under a volume of 50 ul on previously-shaved skin.
The treatment is carried out from day 0 to day 4 then (after the weekend) from day 7 to day 10. The animals are sacrificed the day after the last treatment by bleeding the carotid artery, the prostates are removed and fixed in demineralized water containing 10% formol for 72 hours. They are then dissected and weighed.

androgen receptor = molecular target: T1, androgen receptor (Rattus norvegicus, UniProt P15207); experiment: Affinity for the androgen receptor (relative bond affinity, tritiated testosterone displacement in rat prostate cytosol); type: binding
T1 construct: from tissue; host or cells: prostate cytosol of castrated male Sprague Dawley rats
T1 sequence (P15207 1-902): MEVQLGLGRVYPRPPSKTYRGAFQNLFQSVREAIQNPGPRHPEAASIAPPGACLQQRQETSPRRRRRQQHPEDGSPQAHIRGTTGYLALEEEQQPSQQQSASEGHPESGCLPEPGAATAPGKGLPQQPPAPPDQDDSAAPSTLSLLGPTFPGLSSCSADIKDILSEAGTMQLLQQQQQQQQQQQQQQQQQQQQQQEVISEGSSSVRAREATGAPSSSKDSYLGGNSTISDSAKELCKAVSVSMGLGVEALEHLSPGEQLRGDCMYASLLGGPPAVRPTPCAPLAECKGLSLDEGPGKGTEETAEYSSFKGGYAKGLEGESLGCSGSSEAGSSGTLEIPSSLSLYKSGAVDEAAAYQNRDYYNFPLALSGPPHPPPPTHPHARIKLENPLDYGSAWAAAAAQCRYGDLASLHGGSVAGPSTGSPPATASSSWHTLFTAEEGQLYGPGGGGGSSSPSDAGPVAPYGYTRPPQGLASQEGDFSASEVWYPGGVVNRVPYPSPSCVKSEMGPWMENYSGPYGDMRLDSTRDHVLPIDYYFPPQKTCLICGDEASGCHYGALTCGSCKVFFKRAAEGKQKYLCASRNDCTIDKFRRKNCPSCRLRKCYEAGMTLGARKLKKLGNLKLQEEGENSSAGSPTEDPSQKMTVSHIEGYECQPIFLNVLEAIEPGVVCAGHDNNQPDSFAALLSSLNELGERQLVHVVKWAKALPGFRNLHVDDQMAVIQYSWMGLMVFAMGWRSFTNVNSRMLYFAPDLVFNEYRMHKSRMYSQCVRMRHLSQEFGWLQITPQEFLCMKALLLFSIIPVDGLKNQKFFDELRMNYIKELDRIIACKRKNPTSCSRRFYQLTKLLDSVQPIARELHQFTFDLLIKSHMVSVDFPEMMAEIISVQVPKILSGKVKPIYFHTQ
Protocol: The straight line of the equation I50 =(B/Tmax+B/Tmin)/2 is determined.

[2] = tested on: costovertebral gland of the hamster; experiment: Reducing effect on the costo-vertebral gland of the hamster (topical antiandrogen activity); type: in vivo; details: topical on right-hand C.V.G., 3 weeks (14 administrations), male hamsters, reduction in surface area
Protocol: 2) Determination of the Reducing Effect on the Costo-vertebral Gland of the Hamster
The local activity (topical) of an antiandrogen is determined by the reduction which it brings about in the surface area of the costovertebral gland of the hamster (hereafter C.V.G.), an androgen-dependent organ situated on the flanks of the animal.
The animals are male hamsters weighing about 140 g, 14 weeks old and originating from the Charles River breed (USA), they are subjected to a long photoperiod (16 hours of light, 8 hours of darkness). The animals are treated every day, except for the weekend, for 3 weeks (14 administrations). The product to be tested is applied, by topical route, on the right-hand C.V.G., the left-hand one serving as the control. The surface of the gland has been shaved beforehand. The animals are sacrificed by bleeding the carotid artery 24 hours after the last treatment. The C.V.G.'s are removed, measured and weighed. The local activity of a product is determined by the % of reduction in the surface area of the C.V.G. which it induces in comparison with the 1st day of the experiment and compared to the animals treated with solvent only.

Structure (SMILES)	% reduction in the prostate weight with 3 mg/kg P.O. [1] [%]	RBA: Incubation 24 hours (androgen receptor)	% CVG reduction with 3 μg/jour [2] [%]
CC1(C)C(=O)N(c2ccc(C#N)c(C(F)(F)F)c2)C(=O)N1CC#CCO [Example 8, 4-(3-(4-hydroxy-2-butyn-1-yl)-4,4-dimethyl-2,5-dione-1-imidazolidinyl)-2-(trifluoromethyl)-benzonitrile]	-35		
N#Cc1ccc(N2C(=O)N(CCF)C(CF)(CF)C2=O)cc1C(F)(F)F [Example 1, 4-(4,4-bis(fluoromethyl)-2,5-dioxo-3-(2-fluoroethyl)-1-imidazolidinyl)-2-(trifluoromethyl)-benzonitrile]	-27	42	-32
CCN1C(=O)N(c2ccc(C#N)c(C(F)(F)F)c2)C(=O)C1(CF)CF [Example 3, 4-(2,5-dioxo-4,4-bis(fluoromethyl)-3-ethyl-1-imidazolidinyl)-2-(trifluoromethyl)-benzonitrile]	-20	43	-33
N#Cc1ccc(N2C(=O)N(CCCCO)C3(CCCCC3)C2=O)cc1C(F)(F)F [Example 9, 4-[2,4-dioxo-1-(4-hydroxybutyl)-1,3-diazaspiro-[4.5]decan-3-yl]-2-(trifluoromethyl)-benzonitrile]			-25
